# Experimental data as given in PubChem BioAssay (NCI).
#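 1) Cells in 96-well plates. 2) Compound, 48 h, 5 concentrations. 3) Linear interpolation between surrounding doses. 4) Unreached endpoint = highest concentration. TGI is the concentration that stops growth completely.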
# Legend:
# Assay in all cases: NCI-60 cell line screen, 48 h
# [1] = system: PC-3 prostate
# [2] = system: HT29 colon
# [3] = system: BT-549 breast
# [4] = system: SN12C renal
# [5] = system: T-47D breast
# [6] = system: OVCAR-3 ovarian
# [7] = system: UO-31 renal
# [8] = system: K-562 leukemia
# [9] = system: A549 NSCLC
# [10] = system: RPMI-8226 leukemia
# [11] = system: SF-539 CNS
# [12] = system: SF-268 CNS
# [13] = system: HL-60(TB) leukemia
# [14] = system: SF-295 CNS
# [15] = system: A498 renal
# [16] = system: MDA-N
# [17] = system: SK-MEL-2 melanoma
# [18] = system: KM12 colon
# [19] = system: EKVX NSCLC
# [20] = system: OVCAR-8 ovarian
# [21] = system: NCI-H460 lung
# [22] = system: NCI-H226 lung
# [23] = system: HCT-15 colon
# [24] = system: U251 CNS
# [25] = system: SK-OV-3 ovarian
# [26] = system: MDA-MB-231 breast
# [27] = system: OVCAR-5 ovarian
# [28] = system: MALME-3M melanoma
# [29] = system: HOP-92 NSCLC
# [30] = system: RXF 393 renal
# [31] = system: NCI-H23 lung
# [32] = system: SNB-19 CNS
# [33] = system: MCF7 breast
# [34] = system: SNB-75 CNS
# [35] = system: IGROV1 ovarian
# [36] = system: SW-620 colon
# [37] = system: OVCAR-4 ovarian
# [38] = system: M14 melanoma
# [39] = system: HS 578T breast
# [40] = system: UACC-62 melanoma
# [41] = system: MOLT-4 leukemia
# [42] = system: LOX IMVI melanoma
# [43] = system: DU-145 prostate
# [44] = system: HCT-116 colon
# [45] = system: SK-MEL-28 melanoma
# [46] = system: COLO 205 colon
# [47] = system: ACHN renal
# [48] = system: SK-MEL-5 melanoma
# [49] = system: CAKI-1 renal
# [50] = system: TK-10 renal
# [51] = system: NCI/ADR-RES ovarian
# [52] = system: MDA-MB-435
# [53] = system: HOP-62 NSCLC
# [54] = system: SR leukemia
# [55] = system: CCRF-CEM leukemia
# [56] = system: UACC-257 melanoma
# [57] = system: NCI-H522 lung
# [58] = system: 786-0 renal
# [59] = system: HCC-2998 colon
structure (smiles),measurement,setting,value
COc1cc(/C=N\O)cc(/C=N/O)c1O,TGI,[1],> 100 µM
same,TGI,[2],> 100 µM
same,TGI,[3],> 100 µM
same,TGI,[4],> 100 µM
same,TGI,[5],> 100 µM
same,TGI,[6],> 100 µM
same,TGI,[7],> 100 µM
same,TGI,[8],> 100 µM
same,TGI,[9],> 100 µM
same,TGI,[10],32.4 µM
same,TGI,[11],66.3 µM
same,TGI,[12],> 100 µM
same,TGI,[13],> 100 µM
same,TGI,[14],76.5 µM
same,TGI,[15],> 100 µM
same,TGI,[16],> 100 µM
same,TGI,[17],62.7 µM
same,TGI,[18],> 100 µM
same,TGI,[19],> 100 µM
same,TGI,[20],> 100 µM
same,TGI,[21],> 100 µM
same,TGI,[22],63.8 µM
same,TGI,[23],> 100 µM
same,TGI,[24],> 100 µM
same,TGI,[25],90.9 µM
same,TGI,[26],> 100 µM
same,TGI,[27],> 100 µM
same,TGI,[28],97.6 µM
same,TGI,[29],79.5 µM
same,TGI,[30],60.3 µM
same,TGI,[31],> 100 µM
same,TGI,[32],> 100 µM
same,TGI,[33],> 100 µM
same,TGI,[34],> 100 µM
same,TGI,[35],> 100 µM
same,TGI,[36],> 100 µM
same,TGI,[37],> 100 µM
same,TGI,[38],54.7 µM
same,TGI,[39],51.4 µM
same,TGI,[40],> 100 µM
same,TGI,[41],77 µM
same,TGI,[42],> 100 µM
same,TGI,[43],> 100 µM
same,TGI,[44],> 100 µM
same,TGI,[45],> 100 µM
same,TGI,[46],49.2 µM
same,TGI,[47],81.9 µM
same,TGI,[48],> 100 µM
same,TGI,[49],> 100 µM
same,TGI,[50],> 100 µM
same,TGI,[51],> 100 µM
same,TGI,[52],> 100 µM
same,TGI,[53],> 100 µM
same,TGI,[54],90.2 µM
same,TGI,[55],25.1 µM
same,TGI,[56],> 100 µM
same,TGI,[57],> 100 µM
NC1(C(=O)O)CCCC1C(=O)O (stereo unspecified),TGI,[1],> 100 µM
same,TGI,[2],> 100 µM
same,TGI,[3],> 100 µM
same,TGI,[4],> 100 µM
same,TGI,[5],> 100 µM
same,TGI,[6],> 100 µM
same,TGI,[7],> 100 µM
same,TGI,[8],> 100 µM
same,TGI,[9],> 100 µM
same,TGI,[10],> 100 µM
same,TGI,[11],> 100 µM
same,TGI,[12],> 100 µM
same,TGI,[13],> 100 µM
same,TGI,[14],> 100 µM
same,TGI,[15],> 100 µM
same,TGI,[16],> 100 µM
same,TGI,[17],> 100 µM
same,TGI,[18],> 100 µM
same,TGI,[19],> 100 µM
same,TGI,[20],> 100 µM
same,TGI,[21],> 100 µM
same,TGI,[23],> 100 µM
same,TGI,[24],> 100 µM
same,TGI,[25],> 100 µM
same,TGI,[26],> 100 µM
same,TGI,[58],> 100 µM
same,TGI,[27],> 100 µM
same,TGI,[28],> 100 µM
same,TGI,[29],> 100 µM
same,TGI,[30],> 100 µM
same,TGI,[31],> 100 µM
same,TGI,[32],> 100 µM
same,TGI,[33],> 100 µM
same,TGI,[34],> 100 µM
same,TGI,[35],> 100 µM
same,TGI,[36],> 100 µM
same,TGI,[37],> 100 µM
same,TGI,[38],> 100 µM
same,TGI,[39],> 100 µM
same,TGI,[40],> 100 µM
same,TGI,[41],> 100 µM
same,TGI,[42],> 100 µM
same,TGI,[43],> 100 µM
same,TGI,[44],> 100 µM
same,TGI,[45],> 100 µM
same,TGI,[46],> 100 µM
same,TGI,[47],> 100 µM
same,TGI,[48],> 100 µM
same,TGI,[49],> 100 µM
same,TGI,[50],> 100 µM
same,TGI,[51],> 100 µM
same,TGI,[52],> 100 µM
same,TGI,[53],> 100 µM
same,TGI,[54],> 100 µM
same,TGI,[55],> 100 µM
same,TGI,[56],> 100 µM
same,TGI,[57],> 100 µM
CC(C)CC(C(N)=O)C(=O)NC(Cc1ccccc1)NC(=O)CNC(=O)C(C)NC(=O)C(N)Cc1ccc(O)cc1 (stereo unspecified),TGI,[1],> 100 µM
same,TGI,[2],> 100 µM
same,TGI,[3],> 100 µM
same,TGI,[4],> 100 µM
same,TGI,[5],> 100 µM
same,TGI,[6],> 100 µM
same,TGI,[7],> 100 µM
same,TGI,[8],> 100 µM
same,TGI,[9],> 100 µM
same,TGI,[10],> 100 µM
same,TGI,[11],> 100 µM
same,TGI,[12],> 100 µM
same,TGI,[13],> 100 µM
same,TGI,[14],> 100 µM
same,TGI,[16],> 100 µM
same,TGI,[17],> 100 µM
same,TGI,[18],> 100 µM
same,TGI,[19],> 100 µM
same,TGI,[20],> 100 µM
same,TGI,[21],> 100 µM
same,TGI,[22],> 100 µM
same,TGI,[23],> 100 µM
same,TGI,[24],> 100 µM
same,TGI,[25],> 100 µM
same,TGI,[26],> 100 µM
same,TGI,[58],> 100 µM
same,TGI,[27],> 100 µM
same,TGI,[28],> 100 µM
same,TGI,[30],> 100 µM
same,TGI,[31],> 100 µM
same,TGI,[32],> 100 µM
same,TGI,[33],> 100 µM
same,TGI,[34],> 100 µM
same,TGI,[35],> 100 µM
same,TGI,[36],> 100 µM
same,TGI,[37],> 100 µM
same,TGI,[38],> 100 µM
same,TGI,[39],> 100 µM
same,TGI,[40],> 100 µM
same,TGI,[41],> 100 µM
same,TGI,[42],> 100 µM
same,TGI,[43],> 100 µM
same,TGI,[44],> 100 µM
same,TGI,[45],> 100 µM
same,TGI,[46],> 100 µM
same,TGI,[47],> 100 µM
same,TGI,[48],> 100 µM
same,TGI,[49],> 100 µM
same,TGI,[50],> 100 µM
same,TGI,[51],> 100 µM
same,TGI,[59],> 100 µM
same,TGI,[52],> 100 µM
same,TGI,[53],> 100 µM
same,TGI,[54],> 100 µM
same,TGI,[55],> 100 µM
same,TGI,[56],> 100 µM
same,TGI,[57],> 100 µM
